The values below are quoted from earlier work in patent publication US8454993B2, “Controlled release pharmaceutical compositions of pregabalin” (Lupin Limited, priority 2007, dated 2013).

The conditions of this data set: in water and both basic and acidic aqueous solutions.

On to `CC(C)C[C@H](CN)CC(=O)O` [Pregabalin, (S)-(+)-3-(aminomethyl)-5-methylhexanoic acid], for which the solubility result is recorded as “freely soluble”.
